Biological target: T1, Arf1 (Homo sapiens, UniProt P84077)
T1 construct: endogenous Arf1 in Huh7 cells, active form pulled down with GGA3 and detected with anti-Arf1 antibody
Assay: GGA3 pull-down of active Arf1, western blot
Type: cell-based
Conditions: Huh7 cells; GBF1-dependent Arf1 activation

T1 sequence (P84077 2-181): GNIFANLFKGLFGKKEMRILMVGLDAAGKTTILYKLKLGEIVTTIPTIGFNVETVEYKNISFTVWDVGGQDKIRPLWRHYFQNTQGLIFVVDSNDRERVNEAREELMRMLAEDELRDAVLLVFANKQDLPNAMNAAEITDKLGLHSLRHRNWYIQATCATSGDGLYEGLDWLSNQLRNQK

SMILES | GGA3 pull-down of active Arf1, western blot
C(=N\Nc1ncnc2sc3c(c12)CCCC3)/c1ccc2[nH]ccc2c1 [DU101] | DU101 or DU102 treatment significantly inhibited Arf1 activity
C(=N\Nc1ncnc2sc3c(c12)CCCCCC3)/c1ccc2[nH]ccc2c1 [DU102] | DU101 or DU102 treatment significantly inhibited Arf1 activity
